Data published in patent EP4818193A1, “COMPOSITION AND METHOD FOR TREATING NEONATAL HYPOXIC-ISCHEMIC ENCEPHALOPATHY” (Suzhou Glenkol Pharma Technology Co., Ltd., priority 2023, dated 2025).

Columns and labels:
[1] = system: cerebral cortical neural cells; assay: Lactate dehydrogenase (LDH) cytotoxicity assay after oxygen-glucose deprivation; type: cell-based, neonatal rats; parameters: dose or concentration left out as unconfirmed; conditions: added at initiation of oxygen-glucose deprivation; 24 hours after injury; compared to untreated oxygen-glucose deprivation group, p < 0.05
[2] = system: cerebral cortical neural cells; assay: MTT assay for cell viability after oxygen-glucose deprivation; type: cell-based, neonatal rats; parameters: dose or concentration left out as unconfirmed; conditions: added at initiation of oxygen-glucose deprivation; 24 hours after injury; compared to untreated oxygen-glucose deprivation group, p < 0.05

For Davunetide [NaP], the LDH release levels [1] was “significantly reduced” and the MTT formation levels [2] was “significantly increased”.
